{"source": "patent US20230279002A1", "about": "“Polymorphs of Crystalline Forms of 3,10-dimethoxy-5,8,13,13a-tetrahydro-6H-isoquinolino[3,2-a]isoquinolin-9-yl 3-fluorobenzenesulfonate and Salts Thereof” (CVI Pharmaceuticals Limited, priority 2020, published 2023)", "assay_type_in_all_cases": "physicochemical", "key": {"[1]": {"assay": "DVS (Dynamic Vapor Sorption) moisture sorption/desorption, hygroscopicity classification", "summary_of_the_method": "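Moisture sorption/desorption profiled by DVS on about 10–20 mg sample, isothermal at 25° C, cycling 0%→95%→0% RH in 5% RH steps. Equilibrium per step taken at dm/dt ≤ 0.01%/min. Hygroscopicity class assigned from %-moisture gain versus rising RH.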"}, "[2]": {"assay": "Solid stability at 40° C./0% RH (closed) and 40° C./75% RH (open), HPLC", "details": "for 0 day % remaining / 7 day % remaining / 21 day % remaining: solid", "summary_of_the_method": "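Solid compound (5 mg) stored in the dark at 40 °C/0% RH in closed vials and at 40 °C/75% RH open. Samples analysed by HPLC at day 0, 5 and 10, or at days 0, 7 and 21, depending on the study.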"}, "[3]": {"assay": "TGA (Thermal Gravimetric Analysis) weight loss", "details": "DSC and TGA", "procedure": "TGA (Thermal Gravimetric Analysis): Samples of compounds (4˜6 mg) were weighed into the pan, and heated under nitrogen purge using a ramp rate of 20° C./min over the range of 30° C.˜350° C."}, "[4]": {"assay": "Solution stability in 0.1 N HCl, pH 4.5 buffer and pH 6.8 buffer at 25° C. and 37° C., HPLC", "details": "for Remaining %: 50 μg/mL, 40% MeOH; for Solution stability: 0.1 N HCl, pH 4.5 buffer and pH 6.8 buffer", "summary_of_the_method": "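Methanol stock (1.0 mg/mL) diluted with each medium to ionic strength 0.15 M, final 50 μg/mL in 40% MeOH; acetate used for pH 4.5. For 1b and 3b at pH 6.8, final 25 μg/mL in 40% DMSO. Solutions stored at 25° C. and 37° C.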"}, "[5]": {"assay": "Solubility in SGF, FaSSIF, FeSSIF, 0.1M HCl, pH 4.5 and pH 6.8 aqueous at 25° C. (HPLC)", "details": "for solubility: 25 °C, thermodynamic from solid, read-out: Solubility conc.(mg/ml); for Final pH: solubility test", "procedure": "Solubility: Excess drug substance was equilibrated with SGF (Simulated Gastric Fluid), FaSSIF (Simulated Small Intestinal Fluid under Fasted state), FeSSIF (Simulated Small Intestinal Fluid under Fed state), 0.1M HCl, pH 4.5 aqueous, and pH 6.8 aqueous at 25° C. After stirring for 20˜24 h, each sample was filtered, diluted appropriately and analyzed by HPLC. The experiment was terminated once a solubility target of 5 mg/mL was reached."}}, "note": "Where two headings read alike, the source gives them in different places.", "data": [{"compound": "COc1ccc2c(c1)CCN1Cc3c(ccc(OC)c3OS(=O)(=O)c3cccc(F)c3)C[C@@H]21", "note": "[Compound 2b]", "values": [{"measurement": "Change In Mass (%) - ref, Desorption", "setting": "[1]; Cycle 1, target RH 85.0%", "result": 0.0530, "unit": "%"}, {"measurement": "Change In Mass (%) - ref, Hysteresis", "setting": "[1]; Cycle 1, target RH 85.0%", "result": 0.0030, "unit": "%"}, {"measurement": "Change In Mass (%) - ref, Sorption", "setting": "[1]; Cycle 1, target RH 85.0%", "result": 0.0500, "unit": "%"}, {"measurement": "Change In Mass (%) - ref, Desorption", "setting": "[1]; Cycle 1, target RH 90.0%", "result": 0.0689, "unit": "%"}, {"measurement": "Change In Mass (%) - ref, Hysteresis", "setting": "[1]; Cycle 1, target RH 90.0%", "result": 0.0051, "unit": "%"}, {"measurement": "Change In Mass (%) - ref, Sorption", "setting": "[1]; Cycle 1, target RH 90.0%", "result": 0.0638, "unit": "%"}, {"measurement": "Change In Mass (%) - ref, Desorption", "setting": "[1]; Cycle 1, target RH 95.0%", "result": 0.0941, "unit": "%"}, {"measurement": "Change In Mass (%) - ref, Sorption", "setting": "[1]; Cycle 1, target RH 95.0%", "result": 0.0941, "unit": "%"}, {"measurement": "moisture picked up (DVS)", "setting": "[1]; at 95% RH, 25 °C", "result": "~0.1", "unit": "%"}, {"measurement": "Solid-state stability (HPLC)", "setting": "[2]; 40° C./0% RH (closed) and 40° C./75% RH (open), dark, up to 3 weeks", "result": "substantially stable"}, {"measurement": "0 day % remaining", "setting": "[2]; 40° C. (0% RH, closed)", "result": 100.0, "unit": "%"}, {"measurement": "7 day % remaining", "setting": "[2]; 40° C. (0% RH, closed)", "result": 100.4, "unit": "%"}, {"measurement": "21 day % remaining", "setting": "[2]; 40° C. (0% RH, closed)", "result": 100.0, "unit": "%"}, {"measurement": "0 day % remaining", "setting": "[2]; 40° C./75% RH (open)", "result": 100.0, "unit": "%"}, {"measurement": "7 day % remaining", "setting": "[2]; 40° C./75% RH (open)", "result": 100.3, "unit": "%"}, {"measurement": "21 day % remaining", "setting": "[2]; 40° C./75% RH (open)", "result": 100.1, "unit": "%"}, {"measurement": "Temperature until which there is no weight loss", "setting": "[3]", "result": "about 200 °C"}, {"measurement": "Solution stability, overall comparison of 1b, 2b and 3b", "setting": "[4]; 25° C. and 37° C.", "result": "best solution stability behaviors"}, {"measurement": "Remaining %", "setting": "[4]; 25° C., 0.1N HCL, 0 h", "result": 100.00, "unit": "%"}, {"measurement": "Remaining %", "setting": "[4]; 25° C., 0.1N HCL, 3 h", "result": 100.07, "unit": "%"}, {"measurement": "Remaining %", "setting": "[4]; 25° C., 0.1N HCL, 24 h", "result": 100.37, "unit": "%"}, {"measurement": "Solution stability", "setting": "[4]; 25° C., 24 h", "result": "stable"}, {"measurement": "Remaining %", "setting": "[4]; 25° C., pH 4.5, 0 h", "result": 100.00, "unit": "%"}, {"measurement": "Remaining %", "setting": "[4]; 25° C., pH 4.5, 3 h", "result": 99.80, "unit": "%"}, {"measurement": "Remaining %", "setting": "[4]; 25° C., pH 4.5, 24 h", "result": 99.52, "unit": "%"}, {"measurement": "Remaining %", "setting": "[4]; 25° C., pH 6.8, 0 h", "result": 100.00, "unit": "%"}, {"measurement": "Remaining %", "setting": "[4]; 25° C., pH 6.8, 3 h", "result": 99.52, "unit": "%"}, {"measurement": "Remaining %", "setting": "[4]; 25° C., pH 6.8, 24 h", "result": 98.01, "unit": "%"}, {"measurement": "Remaining %", "setting": "[4]; 37° C., 0.1N HCL, 0 h", "result": 100.00, "unit": "%"}, {"measurement": "Remaining %", "setting": "[4]; 37° C., 0.1N HCL, 3 h", "result": 100.34, "unit": "%"}, {"measurement": "Remaining %", "setting": "[4]; 37° C., 0.1N HCL, 24 h", "result": 100.95, "unit": "%"}, {"measurement": "Solution stability", "setting": "[4]; 37° C., 24 h", "result": "stable"}, {"measurement": "Remaining %", "setting": "[4]; 37° C., pH 4.5, 0 h", "result": 100.00, "unit": "%"}, {"measurement": "Remaining %", "setting": "[4]; 37° C., pH 4.5, 3 h", "result": 100.00, "unit": "%"}, {"measurement": "Remaining %", "setting": "[4]; 37° C., pH 4.5, 24 h", "result": 99.45, "unit": "%"}, {"measurement": "Remaining %", "setting": "[4]; 37° C., pH 6.8, 0 h", "result": 100.00, "unit": "%"}, {"measurement": "Remaining %", "setting": "[4]; 37° C., pH 6.8, 3 h", "result": 100.28, "unit": "%"}, {"measurement": "Remaining %", "setting": "[4]; 37° C., pH 6.8, 24 h", "result": 99.86, "unit": "%"}, {"measurement": "solubility", "setting": "[5]; 0.1 N HCl, simulated gastric fluid, 0.1N HCL, solubility of salts transformed to freebase", "result": 0.206, "unit": "mg/mL"}, {"measurement": "solubility", "setting": "[5]; FaSSIF (Simulated Small Intestinal Fluid, fasted state), fassif, FaSSIF, solubility of salts transformed to freebase", "result": 0.01, "unit": "mg/mL"}, {"measurement": "solubility", "setting": "[5]; FeSSIF (Simulated Small Intestinal Fluid, fed state), fessif, FeSSIF, solubility of salts transformed to freebase", "result": 0.011, "unit": "mg/mL"}, {"measurement": "Solubility conc.(mg/ml)", "setting": "[5]; SGF, solubility of salts transformed to freebase", "result": 0.147, "unit": "mg/mL"}, {"measurement": "solubility", "setting": "[5]; pH 4.5 acetate buffer (USP), pH 4.5, aqueous buffer, pH 4.5 Acetate Buffer (USP), solubility of salts transformed to freebase", "result": 0.01, "unit": "mg/mL"}, {"measurement": "solubility", "setting": "[5]; pH 6.8 phosphate buffer (USP), pH 6.8, aqueous buffer, pH 6.8 Phosphate Buffer (USP), solubility of salts transformed to freebase", "result": 0.008, "unit": "mg/mL"}, {"measurement": "Final pH", "setting": "[5]; 0.1N HCL", "result": 1.59}, {"measurement": "Final pH", "setting": "[5]; FaSSIF", "result": 6.23}, {"measurement": "Final pH", "setting": "[5]; FeSSIF", "result": 4.93}, {"measurement": "Final pH", "setting": "[5]; SGF", "result": 1.59}, {"measurement": "Final pH", "setting": "[5]; Water", "result": 2.74}, {"measurement": "Final pH", "setting": "[5]; pH 4.5 Acetate Buffer (USP)", "result": 4.44}, {"measurement": "Final pH", "setting": "[5]; pH 6.8 Phosphate Buffer (USP)", "result": 6.67}, {"measurement": "solubility", "setting": "[5]; water, water, Water, solubility of salts transformed to freebase", "result": 0.096, "unit": "mg/mL"}]}]}
